According to patent US11040954B1, “CXCR3 receptor agonists” (RECEPTOS LLC, priority 2016, dated 2021):

Biological target: T1, CXCR3 (Homo sapiens, UniProt P49682)
T1 construct: host or cells: CHO-K1 (cAMP Hunter CHOK1 CXCR3 Gi cell line)
T1 sequence (P49682 1-368): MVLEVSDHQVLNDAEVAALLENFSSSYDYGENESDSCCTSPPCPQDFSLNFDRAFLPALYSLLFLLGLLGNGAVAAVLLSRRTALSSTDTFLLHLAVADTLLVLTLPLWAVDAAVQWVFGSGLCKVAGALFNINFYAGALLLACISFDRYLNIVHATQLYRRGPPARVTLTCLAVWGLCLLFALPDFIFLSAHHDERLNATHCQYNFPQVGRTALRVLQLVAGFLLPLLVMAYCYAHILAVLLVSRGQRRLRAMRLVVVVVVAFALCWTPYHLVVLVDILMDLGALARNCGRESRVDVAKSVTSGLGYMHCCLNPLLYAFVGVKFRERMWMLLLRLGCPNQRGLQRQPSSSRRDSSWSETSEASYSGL
Test: CXCR3 cAMP agonist assay (cAMP Hunter CHOK1 CXCR3 Gi cell line, forskolin-stimulated, HitHunter cAMP detection)
Type: cell-based
Settings: cAMP Hunter CHOK1 CXCR3 Gi cells, 20 μM forskolin, 30 minutes; read-out: Activity (CXCR3 cAMP agonist assay compound EC50)
Description: The cAMP Hunter™ CHOK1 CXCR3 Gi cell line was purchased from DiscoveRx. Cells were seeded into a 96-well white assay plate at 50,000 cells/well/94 μl assay buffer (Hank's Buffered Saline Solution, 10 mM HEPES, 0.1% fatty acid-free BSA, pH 7.4) and immediately assayed in suspension. Forskolin was added to 20 μM (5 μl of 400 μM stock) simultaneously with a 12-point dose response curve of compound at 0-10 μM (1 μl of 100× stock in 100% DMSO), and cells were incubated for 30 minutes. A cAMP standard curve is run as an assay control. A CXCL11 dose response was included to determine maximum efficacy. Direct detection of cAMP was carried out using the DiscoveRx HitHunter cAMP kit according to manufacturer's instructions, and luminescence was read using a SpectraMax M5 plate reader.

| Compound | EC50 |
| --- | --- |
| Cc1cc(NC(=O)C(Cc2cccnc2)NC(=O)[C@@H]2Cc3ccccc3CN2C(=O)CCC(=O)c2ccccc2)ccc1Cl (mixture of isomers) [Compound 3-3] | 250 to 500 nM |
| Cc1cc(NC(=O)C(NC(=O)[C@@H]2Cc3ccccc3CN2C(=O)CCC(=O)c2ccccc2)C2CCNCC2)ccc1Cl (mixture of isomers) [Compound 4-7] | > 500 nM |
| Cc1cc(NC(=O)C(CC2CCNCC2)NC(=O)[C@@H]2Cc3ccccc3CN2C(=O)CCC(=O)c2ccccc2)ccc1Cl (mixture of isomers) [Compound 4-11] | 50 to 250 nM |
| NCC[C@H](NC(=O)[C@@H]1Cc2ccccc2CN1C(=O)CCC(=O)c1ccccc1)C(=O)Nc1cc(Cl)c(Cl)cc1O (racemic) [Compound 4-13] | 50 to 250 nM |
| Cc1cc(NC(=O)C(CC2CCN(C)CC2)NC(=O)[C@@H]2Cc3ccccc3CN2C(=O)CCC(=O)c2ccccc2)ccc1Cl (mixture of isomers) [Compound 6-1, (S)—N—((S)-1-((4-chloro-3-methylphenyl)amino)-3-(1-methylpiperidin-4-yl)-1-oxopropan-2-yl)-2-(4-oxo-4-phenylbutanoyl)-1,2,3,4-tetrahydroisoquinoline-3-carboxamide] | 50 to 250 nM |
| Cc1cc(NC(=O)C(CC2CC[N+](C)(C)CC2)NC(=O)[C@@H]2Cc3ccccc3CN2C(=O)CCC(=O)c2ccccc2)ccc1Cl (mixture of isomers) [Compound 6-2, 4-((S)-3-((4-chloro-3-methylphenyl)amino)-3-oxo-2-((S)-2-(4-oxo-4-phenylbutanoyl)-1,2,3,4-tetrahydroisoquinoline-3-carboxamido)propyl)-1,1-dimethylpiperidin-1-ium iodide] | 50 to 250 nM |
| Cc1cc(NC(=O)C(NC(=O)[C@@H]2Cc3ccccc3CN2C(=O)CCC(=O)c2ccccc2)C2CCN(C)CC2)ccc1Cl (mixture of isomers) [Compound 6-5] | 50 to 250 nM |
| Cc1cc(NC(=O)C(NC(=O)[C@@H]2Cc3ccccc3CN2C(=O)CCC(=O)c2ccccc2)C2CC[N+](C)(C)CC2)ccc1Cl (mixture of isomers) [Compound 6-6] | < 50 nM |
| NC12CC(CC(NC(=O)[C@@H]3Cc4ccccc4CN3C(=O)CCC(=O)c3ccccc3)C(=O)Nc3ccc(Cl)c(Cl)c3F)(C1)C2 (mixture of isomers) [Compound 22-3] | < 50 nM |
| O=C(CCC(=O)N1Cc2ccccc2CC1C(=O)NC(CCN1CCC(F)CC1)C(=O)Nc1ccc2c(c1)CCC2)c1ccccc1 (racemic) [Compound 23-1, N-(1-((2,3-dihydro-1H-inden-5-yl)amino)-4-(4-fluoropiperidin-1-yl)-1-oxobutan-2-yl)-2-(4-oxo-4-phenylbutanoyl)-1,2,3,4-tetrahydroisoquinoline-3-carboxamide] | > 500 nM |
| O=C(CCC(=O)N1Cc2ccccc2CC1C(=O)NC(CCN1CCC(F)CC1)C(=O)Nc1ccc(Cl)c(Cl)c1F)c1ccccc1 (racemic) [Compound 23-3] | < 50 nM |
| Cc1c(Cl)ccc(NC(=O)C(CCN2CCC(O)CC2)NC(=O)[C@@H]2Cc3ccccc3CN2C(=O)CCC(=O)c2ccccc2)c1Cl (mixture of isomers) [Compound 25-1, (3S)—N-(1-((2,4-dichloro-3-methylphenyl)amino)-4-(4-hydroxypiperidin-1-yl)-1-oxobutan-2-yl)-2-(4-oxo-4-phenylbutanoyl)-1,2,3,4-tetrahydroisoquinoline-3-carboxamide] | 50 to 250 nM |
| Cc1cc(NC(=O)[C@H](CCN2CCC(O)CC2)NC(=O)[C@@H]2Cc3ccccc3CN2C(=O)CCC(=O)c2ccccc2)c(F)cc1Cl (racemic) [Compound 25-2] | 50 to 250 nM |
| Cc1cccc(NC(=O)[C@H](CCN2CCC(O)CC2)NC(=O)[C@@H]2Cc3ccccc3CN2C(=O)CCC(=O)c2ccccc2)c1Cl (racemic) [Compound 25-3] | 250 to 500 nM |
| Cc1cc(NC(=O)[C@H](CCCCN)NC(=O)[C@@H]2Cc3ccccc3CN2C(=O)CCC(=O)c2ccccc2)ccc1Cl (stereo in doubt) [Compound 4-2, (S)—N—((S)-6-amino-1-((4-chloro-3-methylphenyl)amino)-1-oxohexan-2-yl)-2-(4-oxo-4-phenylbutanoyl)-1,2,3,4-tetrahydroisoquinoline-3-carboxamide] | 250 to 500 nM |
| NCCCC[C@H](NC(=O)[C@@H]1Cc2ccccc2CN1C(=O)CCC(=O)c1ccccc1)C(=O)Nc1ccc(Cl)c(Cl)c1 [Compound 1-1, (S)—N—((S)-6-amino-1-((3,4-dichlorophenyl)amino)-1-oxohexan-2-yl)-2-(4-oxo-4-phenylbutanoyl)-1,2,3,4-tetrahydroisoquinoline-3-carboxamide] | 50 to 250 nM |
| NCCCC[C@H](NC(=O)[C@@H]1Cc2ccccc2CN1C(=O)CCC(=O)c1ccccc1)C(=O)Nc1ccc(Cl)cc1 [Compound 1-2] | 250 to 500 nM |
| Cc1ccc(NC(=O)[C@H](CCCCN)NC(=O)[C@@H]2Cc3ccccc3CN2C(=O)CCC(=O)c2ccccc2)cc1 [Compound 1-3] | 50 to 250 nM |
| NCCCC[C@H](NC(=O)[C@@H]1Cc2ccccc2CN1C(=O)CCC(=O)c1ccccc1)C(=O)Nc1ccc(-c2ccccc2)cc1 [Compound 1-5] | > 500 nM |
| COc1ccccc1NC(=O)[C@H](CCCCN)NC(=O)[C@@H]1Cc2ccccc2CN1C(=O)CCC(=O)c1ccccc1 [Compound 1-6] | 250 to 500 nM |
| CC(C)c1ccc(NC(=O)[C@H](CCCCN)NC(=O)[C@@H]2Cc3ccccc3CN2C(=O)CCC(=O)c2ccccc2)cc1 [Compound 1-7] | > 500 nM |
| NCCCC[C@H](NC(=O)[C@@H]1Cc2ccccc2CN1C(=O)CCC(=O)c1ccccc1)C(=O)Nc1cccc(F)c1 [Compound 1-8] | > 500 nM |

| Compound | EC50 |
| --- | --- |
| NCCCC[C@H](NC(=O)[C@@H]1Cc2ccccc2CN1C(=O)CCC(=O)c1ccccc1)C(=O)Nc1cccc(Cl)c1 [Compound 1-9] | 50 to 250 nM |
| Cc1cccc(NC(=O)[C@H](CCCCN)NC(=O)[C@@H]2Cc3ccccc3CN2C(=O)CCC(=O)c2ccccc2)c1 [Compound 1-10] | 50 to 250 nM |
| COc1cccc(NC(=O)[C@H](CCCCN)NC(=O)[C@@H]2Cc3ccccc3CN2C(=O)CCC(=O)c2ccccc2)c1 [Compound 1-11] | 250 to 500 nM |
| Cc1ccccc1NC(=O)[C@H](CCCCN)NC(=O)[C@@H]1Cc2ccccc2CN1C(=O)CCC(=O)c1ccccc1 [Compound 1-12] | 250 to 500 nM |
| NCCCC[C@H](NC(=O)[C@@H]1Cc2ccccc2CN1C(=O)CCC(=O)c1ccccc1)C(=O)Nc1cccc(C(F)(F)F)c1 [Compound 1-13] | 50 to 250 nM |
| NCCCC[C@H](NC(=O)[C@@H]1Cc2ccccc2CN1C(=O)CCC(=O)c1ccccc1)C(=O)Nc1ccccc1F [Compound 1-15] | 250 to 500 nM |
| CCc1ccc(NC(=O)[C@H](CCCCN)NC(=O)[C@@H]2Cc3ccccc3CN2C(=O)CCC(=O)c2ccccc2)cc1CC [Compound 1-16] | 50 to 250 nM |
| NCCCC[C@H](NC(=O)[C@@H]1Cc2ccccc2CN1C(=O)CCC(=O)c1ccccc1)C(=O)Nc1cc(Cl)cc(Cl)c1 [Compound 1-17] | 50 to 250 nM |
| NCCCC[C@H](NC(=O)[C@@H]1Cc2ccccc2CN1C(=O)CCC(=O)c1ccccc1)C(=O)Nc1ccc(Cl)c(C(F)(F)F)c1 [Compound 1-18] | < 50 nM |
| NCCCC[C@H](NC(=O)[C@@H]1Cc2ccccc2CN1C(=O)CCC(=O)c1ccccc1)C(=O)Nc1ccc(C(F)(F)F)c(F)c1 [Compound 1-19] | 250 to 500 nM |
| NCCCC[C@H](NC(=O)[C@@H]1Cc2ccccc2CN1C(=O)CCC(=O)c1ccccc1)C(=O)Nc1ccc(F)c(F)c1 [Compound 1-21] | > 500 nM |
| NCCCC[C@H](NC(=O)[C@@H]1Cc2ccccc2CN1C(=O)CCC(=O)c1ccccc1)C(=O)Nc1ccc(C(F)(F)F)c(Cl)c1 [Compound 1-22] | 250 to 500 nM |
| NCCCC[C@H](NC(=O)[C@@H]1Cc2ccccc2CN1C(=O)CCC(=O)c1ccccc1)C(=O)Nc1ccc(Cl)cc1F [Compound 1-23] | 50 to 250 nM |
| Cc1cc(Cl)ccc1NC(=O)[C@H](CCCCN)NC(=O)[C@@H]1Cc2ccccc2CN1C(=O)CCC(=O)c1ccccc1 [Compound 1-24] | 50 to 250 nM |
| Cc1ccc(NC(=O)[C@H](CCCCN)NC(=O)[C@@H]2Cc3ccccc3CN2C(=O)CCC(=O)c2ccccc2)cc1Cl [Compound 1-27] | < 50 nM |
| Cc1cc(NC(=O)[C@H](CCCCN)NC(=O)[C@@H]2Cc3ccccc3CN2C(=O)CCC(=O)c2ccccc2)ccc1C(F)(F)F [Compound 1-28] | 50 to 250 nM |
| Cc1ccc(NC(=O)[C@H](CCCCN)NC(=O)[C@@H]2Cc3ccccc3CN2C(=O)CCC(=O)c2ccccc2)cc1C [Compound 1-29] | < 50 nM |
| Cc1ccc(NC(=O)[C@H](CCCCN)NC(=O)[C@@H]2Cc3ccccc3CN2C(=O)CCC(=O)c2ccccc2)cc1C(F)(F)F [Compound 1-30] | < 50 nM |
| CN(C)CCCC[C@H](NC(=O)[C@@H]1Cc2ccccc2CN1C(=O)CCC(=O)c1ccccc1)C(=O)Nc1ccc(Cl)c(Cl)c1 [Compound 1-31] | 250 to 500 nM |
| Cc1cc(NC(=O)[C@H](CCCNC(=N)N)NC(=O)[C@@H]2Cc3ccccc3CN2C(=O)CCC(=O)c2ccccc2)ccc1Cl [Compound 1-32] | < 50 nM |
| Cc1ccc(NC(=O)[C@H](CCCNC(=N)N)NC(=O)[C@@H]2Cc3ccccc3CN2C(=O)CCC(=O)c2ccccc2)cc1C [Compound 1-33] | < 50 nM |
| Cc1cc(NC(=O)[C@H](CCCCN)NC(=O)[C@@H]2Cc3ccccc3CN2C(=O)CCC(=O)c2ccccc2)cnc1C [Compound 1-34] | < 50 nM |
